Where two headings read alike, the source gives them in different places.
Columns and labels:
Format in all cases: cell-based
[1] = system: FRα-negative MDA-MB-468 cells co-cultured with FRα-positive JEG-3; test: Bystander activity of ADCs (mono-culture vs co-culture, flow cytometry); settings: 4 days; for Average MDA-MB-468 Viability (%) Co-culture: MDA-MB-468 co-cultured with JEG-3, 2 nM ADC; for Average MDA-MB-468 Viability (%) Co-culture / Average MDA-MB-468 Viability (%) Mono-culture: relative to untreated blank; for Average MDA-MB-468 Viability (%) Mono-culture: MDA-MB-468 mono-culture; for Average MDA-MB-468 Viability (%) Mono-culture / % Bystander Activity / bystander activity: 2 nM ADC; for % Bystander Activity: mono-culture viability compared with co-culture viability; for bystander activity: viability of MDA-MB-468 in co-culture vs mono-culture
Method: The ability of the humanized variant v30384 conjugated to various drug-linkers to exert a bystander killing effect on cancer cells was assessed according to the method described below. Bystander killing most commonly occurs after target-specific uptake of an ADC into an antigen-positive cell. Trafficking and degradation of the ADC results in release of active catabolite free drug, which then crosses the cell membrane of nearby cells to elicit cell death.
FRα-positive JEG-3 and FRα-negative MDA-MB-468 cells were seeded either as mono-cultures or co-cultures in a 48-well plate at 20,000 cells and 10,000 cells, respectively, in 100 μL assay media (Minimum Essential Media supplemented with 10% Fetal Bovine Serum (both from Thermo Fisher Scientific, Waltham, MA)). ADCs were diluted to 4 nM in assay media and 100 μL was added to the cell-containing plates (2 nM final ADC concentration). Cells were incubated with ADCs for 4 days under standard culturing conditions (37° C./5% C02). Following incubation, cells were dissociated, washed, and stained using a viability dye, YO—PRO®-1 (ThermoFisher Scientific, Waltham, MA), and an anti-FRα antibody, mirvetuximab (v17716), conjugated to Alexa Fluor®647, for 20 minutes at 4° C. After incubation, cells were washed in FACS buffer (phosphate buffered saline pH 7.4 (ThermoFisher Scientific, Waltham, MA) supplemented with 2% FBS), resuspended in 70 μL FACS buffer per well, and 35 μL per well were analyzed on a BD LSRFortessa™ Cell Analyzer (BD Biosciences, Franklin Lake, NJ). Dead cells were excluded by gating on YO—PRO®-1 staining. The number of JEG-3 and MDA-MB-468 cells were determined by the number of events in the Alexa Fluor®647 positive (FRα-positive) and Alexa Fluor®647 negative (FRα-negative) gates, respectively. Percent viability was calculated as the number of cells in treatment condition divided by the number of cells in the no-treatment condition.

SK-BR-3 (breast cancer) = test: In vitro cytotoxicity of camptothecin analogues (CellTiter-Glo); settings: Homo sapiens, SK-BR-3, 96 h, read-out: pIC50 SKBR-3 (converted)
How it was run: (§1)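 Cells seeded at 20,000 cells/mL (ZR-75-1 at 10,000 cells/mL) with serially diluted compounds in RPMI 1640 + 10% FBS and incubated 4 d at 37 °C (ZR-75-1 5 d). Growth inhibition was read by CellTiter-Glo luminescence and IC50 fitted.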

ZR-75-1 (breast cancer) = test: as above; settings: Homo sapiens, ZR-75-1, 120 h, read-out: pIC50 ZR-75 (converted)
How it was run: as §1

SKOV-3 (ovarian cancer) = test: as above; settings: Homo sapiens, SK-OV-3, 96 h, read-out: pIC50 SKOV-3 (converted)
How it was run: as §1

[2] = system: MDA-MB-468 (breast cancer); test: as above; settings: Homo sapiens, MDA-MB-468, 96 h, read-out: pIC50 MDA-MB-468 (converted)
How it was run: as §1

Calu-3 (lung cancer) = test: as above; settings: Homo sapiens, Calu-3, 96 h, read-out: pIC50 Calu-3 (converted)
How it was run: as §1

In the case of “v22277-MC-GGFG-AM-DXd1: "negative controls palivizumab (anti-RSV) (v22277) conjugated to MC-GGFG-AM-DXd1 (DAR 8) and MCvcPABC-MMAE (DAR 4)"”, the “Average MDA-MB-468 Viability (%) Co-culture” value [1] is reported as 101.8%, the “Average MDA-MB-468 Viability (%) Mono-culture” value [1] is reported as 91.6% and the “% Bystander Activity” value [1] is reported as −10.2%.
“palivizumab MCvcPABC-MMAE: "ADCs comprising palivizumab (v22277) conjugated to MC-GGFG-AM-DXd1 and MCvcPABC-MMAE were included as negative controls"” was tested, and the bystander activity [1] was “negative bystander activity”.
With “palivizumab MC-GGFG-AM-DXd1: "ADCs comprising palivizumab (v22277) conjugated to MC-GGFG-AM-DXd1 and MCvcPABC-MMAE were included as negative controls"” the bystander activity [1] was “negative bystander activity”.
“v22277-MCvcPABC-MMAE: "negative controls palivizumab (anti-RSV) (v22277) conjugated to MC-GGFG-AM-DXd1 (DAR 8) and MCvcPABC-MMAE (DAR 4)"” was tested, and the “Average MDA-MB-468 Viability (%) Co-culture” value [1] was 94.2%, the “Average MDA-MB-468 Viability (%) Mono-culture” value [1] was 81.3% and the “% Bystander Activity” value [1] was −12.9%.
With `CC[C@@]1(O)C(=O)OCc2c1cc1n(c2=O)Cc2c-1nc1cc(F)c(N)cc1c2CNC(=O)NCCO` [Compound 151, (S)-1-((9-amino-4-ethyl-8-fluoro-4-hydroxy-3,14-dioxo-3,4,12,14-tetrahydro-1H-pyrano[3′,4′:6,7]indolizino[1,2-b]quinolin-11-yl)methyl)-3-(2-hydroxyethyl)urea] the IC50 (SK-BR-3 (breast cancer); 4 d incubation) was 2.69 nM, the IC50 (ZR-75-1 (breast cancer); 5 d incubation) was 5.89 nM and the IC50 (SKOV-3 (ovarian cancer); 4 d incubation) was 45.7 nM. It also gave an IC50 ([2]; 4 d incubation) of 11.5 nM and an IC50 (Calu-3 (lung cancer); 4 d incubation) of 11.5 nM.
Work on `CC[C@@]1(O)C(=O)OCc2c1cc1n(c2=O)Cc2c-1nc1cc(F)c(C)cc1c2CN1CCOCC1` [Compound 100, (S)-4-ethyl-8-fluoro-4-hydroxy-9-methyl-11-(morpholinomethyl)-1,12-dihydro-14H-pyrano[3′,4′:6,7]indolizino[1,2-b]quinoline-3,14(4H)-dione] yielded an IC50 (SK-BR-3 (breast cancer); 4 d incubation) of 1.1 nM, an IC50 (ZR-75-1 (breast cancer); 5 d incubation) of 1.23 nM and an IC50 (SKOV-3 (ovarian cancer); 4 d incubation) of 2.29 nM. The IC50 ([2]; 4 d incubation) was 2.51 nM and the IC50 (Calu-3 (lung cancer); 4 d incubation) was 1.12 nM.
`CC[C@@]1(O)C(=O)OCc2c1cc1n(c2=O)Cc2c-1nc1cc(F)c(C)cc1c2CNS(=O)(=O)c1ccc(N)cc1` [Compound 127, (S)-4-amino-N-((4-ethyl-8-fluoro-4-hydroxy-9-methyl-3,14-dioxo-3,4,12,14-tetrahydro-1H-pyrano[3′,4′:6,7]indolizino[1,2-b]quinolin-11-yl)methyl)benzenesulfonamide] gave an IC50 (SK-BR-3 (breast cancer)) of 3.31 nM, an IC50 (ZR-75-1 (breast cancer)) of 5.25 nM and an IC50 (SKOV-3 (ovarian cancer)) of 14.5 nM. For the same molecule, the IC50 [2] was 3.8 nM and the IC50 (Calu-3 (lung cancer)) was 9.33 nM.

Source: US12433952B2, “Antibody-drug conjugates targeting folate receptor alpha and methods of use” (ZYMEWORKS BC INC., priority 2022, dated 2025)
